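Growth conditions: 96-well plates. Treatment: test compound, 48 hours, 5 concentrations. Analysis: linear interpolation between bracketing concentrations; unreached endpoints set to highest concentration. At the TGI there is no net growth.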
Tests used:
Experiment in all cases: NCI-60 cell line screen, 48 h
NCI-H23 lung = tested on: NCI-H23 lung
SK-OV-3 ovarian = tested on: SK-OV-3 ovarian
SNB-19 CNS = tested on: SNB-19 CNS
MCF7 breast = tested on: MCF7 breast
OVCAR-4 ovarian = tested on: OVCAR-4 ovarian
PC-3 prostate = tested on: PC-3 prostate
EKVX NSCLC = tested on: EKVX NSCLC
ACHN renal = tested on: ACHN renal
A498 renal = tested on: A498 renal
NCI-H460 lung = tested on: NCI-H460 lung
MOLT-4 leukemia = tested on: MOLT-4 leukemia
SK-MEL-5 melanoma = tested on: SK-MEL-5 melanoma
UACC-257 melanoma = tested on: UACC-257 melanoma

| Structure (SMILES) | TGI (NCI-H23 lung) [µM] | TGI (SK-OV-3 ovarian) [µM] | TGI (SNB-19 CNS) [µM] | TGI (MCF7 breast) [µM] | TGI (OVCAR-4 ovarian) [µM] | TGI (PC-3 prostate) [µM] | TGI (EKVX NSCLC) [µM] | TGI (ACHN renal) [µM] | TGI (A498 renal) [µM] | TGI (NCI-H460 lung) [µM] | TGI (MOLT-4 leukemia) [µM] | TGI (SK-MEL-5 melanoma) [µM] | TGI (UACC-257 melanoma) [µM] |
| --- | --- | --- | --- | --- | --- | --- | --- | --- | --- | --- | --- | --- | --- |
| Cn1c2ccccc2n2c3nc4ccccc4nc3c(C#N)c12 | > 100 | > 100 | > 100 | > 100 | > 100 | > 100 | > 100 | > 100 | 9.72 | > 100 | > 100 | > 100 | > 100 |
| COC(=O)C(Cc1ccccc1)NC(=O)CNC(=O)CSc1nnc(COc2ccc(Cl)cc2)n1-c1ccccc1 (stereo not given) | 35.6 | 28.6 | 31.4 | 35.5 | 21.7 | 31.3 | 39.9 | 27.2 | 29.4 | 32.2 | > 24.2 | 29.8 | 28.8 |
| CN(C)CCCOC(=O)C(O)(Cc1ccccc1)C1CC1 (stereo not given) | > 100 | > 100 | > 100 | > 100 | > 100 | > 100 | > 100 | > 100 | > 100 | > 100 | > 100 | > 100 | > 100 |
| CCN(CC)C(=O)CCCCCCCCC1CO1 (stereo not given) | > 100 | > 100 | > 100 | > 100 | > 100 | > 100 | > 100 | > 100 | > 100 | > 100 | > 100 | > 100 | > 100 |
| COC(=O)c1c(O)ccc2c1c1c(n2C)C(=O)c2ccccc2C1=O | 78.2 | 21.5 | 50.9 | > 100 | 80.6 | > 100 | > 100 | 35.8 | > 100 | > 100 | 22.8 | > 100 | > 100 |
| COC(=O)/C=C1/OC(c2ccccc2)=C(Cl)C1=O | 39.4 | > 100 | > 66.9 | 37.5 | 39 | 31.6 | 44.5 | 33 | 68.2 | > 77.6 | 18.1 | 28.7 | 66 |
| CC1(C)N=C(N)N=C(N)N1c1cccc(CSc2ccccc2)c1 | > 100 | > 100 | > 100 | > 100 | > 100 | > 100 | > 100 | > 100 | > 100 | > 100 | > 100 | 13.5 | > 100 |
| COC1CCC(OC2CC(C3(C)CCC4(CC(O)C(C)C(C(C)/C=C(\C)C(=O)C(C)CC(C)C(=O)O)O4)O3)OC3(OC(C4OC(O)(CO)C(C)CC4C)CC3C)C2C)OC1C (stereo not given) | 1.13 | 10.9 | 0.355 | 1.91 | 10.3 | 3.14 | 9.64 | 4.9 | 0.336 | 1.6 | 0.339 | 0.464 | 1.52 |
| COc1cc(C2c3cc4c(cc3OC(N3CCOCC3)C2C)OCO4)cc(OC)c1O (stereo not given) | > 100 | > 50.6 | > 75.1 | > 100 | > 100 | > 86.2 | > 94 | > 74.9 | 41.2 | > 100 | > 100 | 17.5 | > 100 |
| COc1cccc(-c2cc(=O)c3cc(C)cnc3[nH]2)c1 | > 100 | > 100 | > 100 | > 100 | > 100 | > 100 | > 100 | > 100 | > 100 | > 100 | > 32.4 | 3.17 | > 100 |
| C=C(Br)CN(C#N)CC(=C)Br | > 100 | > 100 | > 100 | > 100 | > 100 | > 100 | > 100 | > 100 | > 100 | > 100 | > 100 | > 100 | > 100 |
| c1ccc(N=NNNc2ccc(-c3nc4ccccc4[nH]3)cc2)cc1 | > 100 | > 100 | > 100 | 69.9 | > 100 | 82.3 | > 100 | > 100 | > 100 | > 100 | 36.8 | > 100 | > 100 |
| O=C(CSC1=NCCN1)c1ccccc1 | > 100 | > 100 | > 100 | > 100 | > 100 | > 100 | > 100 | > 100 | > 100 | > 100 | > 100 | > 100 | > 100 |
| CCCCCc1c(CCCC)c(=O)[nH]c2cc(CNCC(OC)OC)ccc12 | 32.8 | 32.3 | 26.2 | 27.8 | 30.9 | 25.5 | 31.3 | 27.8 | 28.9 | 23.9 | 20.6 | 21 | 16.2 |
| O=C1CC(O)c2c(Cl)sc(Cl)c21 (stereo not given) | 35.6 | > 100 | 40.2 | 30.5 | 54.3 | 28.5 | 37.2 | 26.2 | 42.6 | 52.3 | > 20.9 | 43.5 | 27.7 |

Reference: PubChem BioAssay (NCI)
